Data from ChEMBL document CHEMBL5614401 (Eur J Med Chem, 2024).
Active and inactive are the calls of the source. The calls are words filed in the database; no cut-off is given here.

System: Mus musculus
Experiment: (§1) Anti-hyperuricemic activity against potassium oxonate-induced male Kunming mouse model assessed as alleviation of casts formation in kidney at 10 mg/kg, po via gavage administered 1 hr post-potassium oxonate challenge and measured after 7 days on day 7 potassium oxonate injected after 12 hrs fasting and measured followed by 1.5 hrs of compound administration by H and E staining based analysis
Type: functional, organism-based
Conditions: time 7.0 day

SMILES | Activity
C/C(=C\Cc1c(O)ccc2c1OC(c1ccc(Br)c3ccccc13)CC2=O)C(=O)O (configuration not stated) | Active
C/C(=C\Cc1cccc2c1OC(c1ccc(Br)c3ccccc13)CC2=O)C(=O)O (configuration not stated) | Active

System: Mus musculus
Experiment: as §1, with “reduction” for “alleviation of casts formation”, “serum uric acid level” for “kidney”, “administration” for “administration by H and E staining based analysis”
Type: functional
Conditions: time 7 day

SMILES | Activity [µM]
C/C(=C\Cc1c(O)ccc2c1OC(c1ccc(Br)c3ccccc13)CC2=O)C(=O)O (configuration not stated) | 397.87
C/C(=C\Cc1cccc2c1OC(c1ccc(Br)c3ccccc13)CC2=O)C(=O)O (configuration not stated) | 319.1

System: not listed separately
Experiment: (§2) Renal toxicity in potassium oxonate-induced male Kunming mouse model assessed as effect on kidney damage at 10 mg/kg,po via gavage administered 1 hr post-potassium oxonate challenge and measured after 7 days on day 7 potassium oxonate injected after 12 hrs fasting and measured followed by 1.5 hrs of compound administration
Type: organism-based
Conditions: in vivo, 168 h, time 7 day

SMILES | Activity
C/C(=C\Cc1c(O)ccc2c1OC(c1ccc(Br)c3ccccc13)CC2=O)C(=O)O (configuration not stated) | Non-Toxic
C/C(=C\Cc1cccc2c1OC(c1ccc(Br)c3ccccc13)CC2=O)C(=O)O (configuration not stated) | Non-Toxic

System: Mus musculus
Experiment: as §1, with “renal tubule dilatation” for “casts formation in kidney”
Type: functional, organism-based
Conditions: time 7.0 day

SMILES | Activity
C/C(=C\Cc1c(O)ccc2c1OC(c1ccc(Br)c3ccccc13)CC2=O)C(=O)O (configuration not stated) | Active
C/C(=C\Cc1cccc2c1OC(c1ccc(Br)c3ccccc13)CC2=O)C(=O)O (configuration not stated) | Active

System: HK-2
Experiment: Cytotoxicity against human HK-2 cells assessed as cell viability at <100 uM incubated for 24 hrs by MTT assay
Type: toxicity, cell-based
Conditions: hk-2, 24 h

SMILES | Activity
C/C(=C\Cc1c(O)ccc2c1OC(c1ccc(Br)c3ccccc13)CC2=O)C(=O)O (configuration not stated) | Toxic
C/C(=C\Cc1cccc2c1OC(c1ccc(Br)c3ccccc13)CC2=O)C(=O)O (configuration not stated) | Toxic

System: Mus musculus
Experiment: as §1, with “shrinkage” for “casts formation”
Type: functional, organism-based
Conditions: time 7.0 day

SMILES | Activity
C/C(=C\Cc1c(O)ccc2c1OC(c1ccc(Br)c3ccccc13)CC2=O)C(=O)O (configuration not stated) | Active
C/C(=C\Cc1cccc2c1OC(c1ccc(Br)c3ccccc13)CC2=O)C(=O)O (configuration not stated) | Active

Molecular target: T1, Solute carrier family 2, facilitated glucose transporter member 9 (Homo sapiens, UniProt Q9NRM0)
T1 sequence (Q9NRM0 whole entry): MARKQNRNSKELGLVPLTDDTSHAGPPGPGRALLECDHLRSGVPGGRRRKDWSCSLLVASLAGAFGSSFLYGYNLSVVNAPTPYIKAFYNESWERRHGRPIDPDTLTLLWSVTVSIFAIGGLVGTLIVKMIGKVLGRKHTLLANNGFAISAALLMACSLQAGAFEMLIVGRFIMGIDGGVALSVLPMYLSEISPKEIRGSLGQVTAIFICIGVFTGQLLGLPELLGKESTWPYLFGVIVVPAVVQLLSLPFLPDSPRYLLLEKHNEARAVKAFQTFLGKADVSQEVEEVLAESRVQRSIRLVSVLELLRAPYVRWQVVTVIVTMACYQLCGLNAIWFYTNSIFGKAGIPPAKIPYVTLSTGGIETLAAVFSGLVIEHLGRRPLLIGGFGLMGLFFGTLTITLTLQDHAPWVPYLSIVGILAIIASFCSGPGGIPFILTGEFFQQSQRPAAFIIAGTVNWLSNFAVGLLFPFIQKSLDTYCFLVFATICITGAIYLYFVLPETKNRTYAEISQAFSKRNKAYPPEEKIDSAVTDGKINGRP
Experiment: Inhibition of GLUT9 (unknown origin) overexpressed in uric acid-induced HEK293 cells by patch clamp analysis
Type: cell-based
Conditions: not given

IC50 [µM] | SMILES
4.47 | C/C(=C\Cc1cccc2c1OC(c1ccc(Br)c3ccccc13)CC2=O)C(=O)O (configuration not stated)

System: Mus musculus
Experiment: as §1, with “increase” for “alleviation of casts formation”, “urine uric acid level” for “kidney”, “(reference value: 481.6 microM)” for “by H and E staining based analysis”
Type: functional
Conditions: time 7 day

SMILES | Activity [µM]
C/C(=C\Cc1cccc2c1OC(c1ccc(Br)c3ccccc13)CC2=O)C(=O)O (configuration not stated) | 642.1

Same assay, conditions: time 7.0 day

SMILES | Activity
C/C(=C\Cc1c(O)ccc2c1OC(c1ccc(Br)c3ccccc13)CC2=O)C(=O)O (configuration not stated) | Active

System: HK-2
Experiment: Cytotoxicity against human HK-2 cells assessed as cell viability at 100 uM incubated for 48 hrs by MTT assay
Type: toxicity, cell-based
Conditions: hk-2, 48 h

SMILES | Activity
C/C(=C\Cc1c(O)ccc2c1OC(c1ccc(Br)c3ccccc13)CC2=O)C(=O)O (configuration not stated) | Non-Toxic

System: not listed separately
Experiment: MRT (0 to infinity) in male Sprague-Dawley rat at 10 mg/kg, po measured after 24 hrs by LC-MS/MS analysis
Type: ADME, organism-based
Conditions: in vivo

MRT inf [h] | SMILES
7.54 | C/C(=C\Cc1c(O)ccc2c1OC(c1ccc(Br)c3ccccc13)CC2=O)C(=O)O (configuration not stated)
10.2 | C/C(=C\Cc1cccc2c1OC(c1ccc(Br)c3ccccc13)CC2=O)C(=O)O (configuration not stated)

System: not listed separately
Experiment: AUC (0 to infinity) in male Sprague-Dawley rat at 10 mg/kg, po measured after 24 hrs by LC-MS/MS analysis
Type: ADME, organism-based
Conditions: in vivo

AUC(0-inf) [ng·h/mL] | SMILES
8270 | C/C(=C\Cc1c(O)ccc2c1OC(c1ccc(Br)c3ccccc13)CC2=O)C(=O)O (configuration not stated)
18700 | C/C(=C\Cc1cccc2c1OC(c1ccc(Br)c3ccccc13)CC2=O)C(=O)O (configuration not stated)

Molecular target: T2, Solute carrier family 22 member 12 (Homo sapiens, UniProt Q96S37)
T2 sequence (Q96S37 whole entry): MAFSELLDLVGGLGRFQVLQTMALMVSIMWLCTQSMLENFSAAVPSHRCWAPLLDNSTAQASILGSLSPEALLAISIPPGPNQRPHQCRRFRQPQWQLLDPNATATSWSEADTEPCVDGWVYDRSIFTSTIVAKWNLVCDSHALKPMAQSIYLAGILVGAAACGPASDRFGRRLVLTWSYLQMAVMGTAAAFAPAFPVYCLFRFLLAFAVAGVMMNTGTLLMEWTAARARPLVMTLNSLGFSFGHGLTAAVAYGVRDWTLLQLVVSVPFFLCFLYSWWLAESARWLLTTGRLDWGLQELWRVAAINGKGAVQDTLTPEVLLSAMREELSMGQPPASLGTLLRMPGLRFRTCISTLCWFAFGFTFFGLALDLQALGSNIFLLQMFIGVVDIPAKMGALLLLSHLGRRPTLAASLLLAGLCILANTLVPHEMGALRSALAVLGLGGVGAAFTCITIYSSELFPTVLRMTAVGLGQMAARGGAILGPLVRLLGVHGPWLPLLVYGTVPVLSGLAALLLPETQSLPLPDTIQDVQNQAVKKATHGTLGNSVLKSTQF
Experiment: Inhibition of human URAT1 transfected in HEK293 cells by measuring 14C-uric acid uptake preincubated for 30 mins followed by 14--uric acid addition and measured after 15 mins by liquid scintillation counter analysis
Type: cell-based
Conditions: not given

IC50 [µM] | SMILES
0.19 | C/C(=C\Cc1c(O)ccc2c1OC(c1ccc(Br)c3ccccc13)CC2=O)C(=O)O (configuration not stated)
0.16 | C/C(=C\Cc1cccc2c1OC(c1ccc(Br)c3ccccc13)CC2=O)C(=O)O (configuration not stated)

System: not listed separately
Experiment: Half life in male Sprague-Dawley rat at 10 mg/kg, po measured after 24 hrs by LC-MS/MS analysis
Type: ADME, organism-based
Conditions: in vivo

half-life [h] | SMILES
4.66 | C/C(=C\Cc1c(O)ccc2c1OC(c1ccc(Br)c3ccccc13)CC2=O)C(=O)O (configuration not stated)
7.88 | C/C(=C\Cc1cccc2c1OC(c1ccc(Br)c3ccccc13)CC2=O)C(=O)O (configuration not stated)

System: not listed separately
Experiment: Cytotoxicity against human HK-2 cells assessed as cell viability at 100 uM incubated for 48 hrs by MTT assay relative to control
Type: toxicity, cell-based
Conditions: read-out: Activity

SMILES | viability at 48 h, 100 µM [%]
C/C(=C\Cc1cccc2c1OC(c1ccc(Br)c3ccccc13)CC2=O)C(=O)O (configuration not stated) | 62.1

System: not listed separately
Experiment: Tmax in male Sprague-Dawley rat at 10 mg/kg, po measured after 24 hrs by LC-MS/MS analysis
Type: ADME, organism-based
Conditions: in vivo

Tmax [h] | SMILES
1.5 | C/C(=C\Cc1c(O)ccc2c1OC(c1ccc(Br)c3ccccc13)CC2=O)C(=O)O (configuration not stated)
1.15 | C/C(=C\Cc1cccc2c1OC(c1ccc(Br)c3ccccc13)CC2=O)C(=O)O (configuration not stated)

System: not listed separately
Experiment: Cmax in male Sprague-Dawley rat at 10 mg/kg, po measured after 24 hrs by LC-MS/MS analysis
Type: ADME, organism-based
Conditions: in vivo

Cmax [ng/mL] | SMILES
1380 | C/C(=C\Cc1c(O)ccc2c1OC(c1ccc(Br)c3ccccc13)CC2=O)C(=O)O (configuration not stated)
2250 | C/C(=C\Cc1cccc2c1OC(c1ccc(Br)c3ccccc13)CC2=O)C(=O)O (configuration not stated)

System: not listed separately
Experiment: as §2, with “reduction in CR level in serum” for “effect on kidney damage”, “administration by biochemical analyzer” for “administration”
Type: organism-based
Conditions: in vivo, 168 h, time 7 day

SMILES | Activity
C/C(=C\Cc1c(O)ccc2c1OC(c1ccc(Br)c3ccccc13)CC2=O)C(=O)O (configuration not stated) | Non-Toxic
C/C(=C\Cc1cccc2c1OC(c1ccc(Br)c3ccccc13)CC2=O)C(=O)O (configuration not stated) | Non-Toxic

Molecular target: T3, Solute carrier family 2, facilitated glucose transporter member 9 (Homo sapiens) (UniProt Q9NRM0)
T3 sequence (whole entry): T1 sequence (Q9NRM0 whole entry)
Experiment: Inhibition of GLUT9 (unknown origin) overexpressed in uric acid-induced HEK293 cells at 25 uM by patch clamp analysis relative to control
Type: cell-based
Conditions: not given

inhibition [%] | SMILES
8.21 | C/C(=C\Cc1c(O)ccc2c1OC(c1ccc(Br)c3ccccc13)CC2=O)C(=O)O (configuration not stated)
91 | C/C(=C\Cc1cccc2c1OC(c1ccc(Br)c3ccccc13)CC2=O)C(=O)O (configuration not stated)

System: not listed separately
Experiment: as §2, with “reduction in BUN level in serum” for “effect on kidney damage”, “administration by biochemical analyzer” for “administration”
Type: organism-based
Conditions: in vivo, 168 h, time 7 day

SMILES | Activity
C/C(=C\Cc1c(O)ccc2c1OC(c1ccc(Br)c3ccccc13)CC2=O)C(=O)O (configuration not stated) | Non-Toxic
C/C(=C\Cc1cccc2c1OC(c1ccc(Br)c3ccccc13)CC2=O)C(=O)O (configuration not stated) | Non-Toxic

System: Mus musculus
Experiment: as §1, with “glomerular ischemia” for “casts formation”
Type: functional, organism-based
Conditions: time 7.0 day

SMILES | Activity
C/C(=C\Cc1c(O)ccc2c1OC(c1ccc(Br)c3ccccc13)CC2=O)C(=O)O (configuration not stated) | Active
C/C(=C\Cc1cccc2c1OC(c1ccc(Br)c3ccccc13)CC2=O)C(=O)O (configuration not stated) | Active
